The test system of data set [1] is HeLa cells. Kind of data set: Transmission electron microscopy of treated cells. The class given is cell-based. Here is the method: Cell preparation for transmission electron microscopy (TEM)—Cell preparation for TEM was performed as described previously (Mi et al., 2007).
For data set [2], the system named is HeLa, PC3, HepG2, MCF7, and A549 cells. The class given is cell-based. The procedure:
MTT cell proliferation assay—Cells were treated in four replicates and seeded into 96-well plate. Following drug treatment, MTT solution of 20 μl for every 100 μl medium was added to wells and incubated for 2 hours, followed by the addition of 150 μL of the DMSO solution to each well. The final reaction product, a purple formazan solution, was detected by a microplate reader (Techan infinite M200) for absorbance at a wavelength of 570 nm and a reference wavelength of 630 nm.

Data set [3] deals with human cancer cell lines. Kind of data set: Combination with chemotherapy drugs in human cancer cell lines (FIG. 13). The class given is cell-based.
For data set [4], the system named is CNE-1 and HONE-1 cells. Kind of data set: Colony formation assay, nasopharyngeal carcinoma cells. It counts as cell-based, human. Conditions: CNE-1 or HONE-1 cells. The procedure: (§1) Although CQ has already been applied to treat a wide spectrum of human cancers, CQ induces ocular or renal toxicity and easily triggers drug resistance (Kimura et al., 2013). […] We first investigated the anti-tumor effects of vacuolin-1 in two nasopharyngeal carcinoma cell lines, CNE-1 and HONE-1. […] Alternatively, colony formation assay was performed to assess whether vacuolin-1 affects the ability of a single tumor cell to grow into a colony. […] We subsequently performed wound healing assay to assess whether vacuolin-1 affects the migration of tumor cells. […] Obviously, vacuolin-1 is an efficient anti-tumor agent in vitro.

In data set [5] the test system is human lung cancer stem cells (hLCSCs). Kind of data set: Cell proliferation of lung cancer stem cells. The class given is cell-based. The text has this: (§2) Cancer stem cells (CSCs), a subpopulation of cells within tumors, actually drive tumor growth and recurrence. CSCs are resistant to many current cancer treatments, including chemo- and radiation therapy, thus they can survive these therapy to regenerate new tumors. […] Therefore, it is of great interest to assess the anti-tumor effects of vacuolin-1 on CSCs.

Data set [6] has as its system CNE-1 and HONE-1 cells. Briefly: Migration and invasiveness of nasopharyngeal carcinoma cells. The class given is cell-based, human. The procedure:
as §1

The subject of data set [7] is RFP-GFP-LC3 expressing HeLa cells. Briefly: RFP-GFP-LC3 (tfLC3) fluorescence image-based autophagy assay. It counts as cell-based. The text has this: Prompted by the fact that many available autophagy chemical modulators lack either potency or specificity (Kimura et al., 2013), a fluorescence image-based assay was set up to screen small molecules affecting autophagy. HeLa cells, an autophagy competent cell line, were infected with lentiviruses carrying expression cassettes that encode RFP-GFP-LC3 (tfLC3) (Kimura et al., 2007). Thus, the LC3-II positive autophagosomes are labeled with both GFP and RFP signals shown as yellow puncta, and after fusion with lysosomes, autolysosomes are shown as red only puncta because GFP loses its fluorescence in acidic pH.
Next, a panel of small chemicals that are commercially available and have been previously shown to affect vesicle trafficking or organelle morphology were selected and screened for their effects on autophagy regulation in tfLC3 expressing HeLa cells (data not shown).

Data set [8] has as its system HeLa cells. Briefly: Western blot analyses of LC3 and p62. It counts as cell-based. The procedure: Western blot and Immunofluorescence staining analyses—Both assays were performed as described previously (Lu et al., 2013).
The test system of data set [9] is CNE-1 and HONE-1 cells. The class given is cell-based, human. The procedure: as §1
In data set [10] the test system is HeLa cells. Kind of data set: GPN induced lysosomal Ca2+ release in Fura-2 loaded cells. The class given is cell-based. As to conditions: 1 μM pretreatment 5 hours, GPN 200 μM. Here is the method:
Intracellular Ca^2+ measurement—Cells were cultured in 24-well plates at the density of 7×10^4 cells/well in regular medium overnight and were labeled with 4 μM Fura-2 AM (Invitrogen) in regular HMSS at room temperature for 30 min. The cells were then washed with calcium-free HMSS containing 2 mM EGTA three times and incubated in the presence or absence of vacuolin-1 at room temperature for another 10 min. Cells were put on the stage of an Olympus inverted epifluorescence microscope and visualized using a 20× objective. Fluorescence images were obtained by alternate excitation at 340 nm and 380 nm with emission set at 510 nm. Images were collected by a CCD camera every 3 or 6 seconds and analyzed by Cell R imaging software.
Since lysosome is also a major intracellular Ca^2+ pool, and Ca^2+ and protons are tightly coupled in lysosomes (Morgan et al., 2011), it was also assessed whether vacuolin-1 treatment affects the lysosomal Ca^2+ content. Treatment of cells with glycyl-1-phenylalanine 2-naphthylamide (GPN) selectively disrupts the lysosomal membrane (Jadot et al., 2001), thereby releasing the lysosomal Ca^2+ (Srinivas et al., 2002).

Data set [11] concerns human lung cancer stem cells (hLCSCs). Briefly: Autophagy inhibition in lung cancer stem cells. It counts as cell-based.
Excerpt: as §2

The test system of data set [12] is CNE-1 and HONE-1 cells. Kind of data set: Wound healing assay. It counts as cell-based, human. Here is the method:
as §1

Data set [13] is described as follows: Acute toxicity in mice. Conditions: young adult mice. It counts as in vivo. Here is the method:
We first assessed the ability of vacuolin-1 to suppress LCSC tumor xenograft in BALB/c nude mice. Briefly, 1×10^4 lung cancer stem cells (LCSCs, 3rd generation) were suspended in Matrigel (BD Biosciences) at a ratio of 1:1, and 200 iL of cells was subcutaneously injected into the back of nude mice. The tumor volume was measured every five days after injection and calculated from the formula: length×width×depth×π/6. Mice were removed from the study when their tumor volumes exceed 2000 mm^3 (FIG. 18A). […] Also, we tested the acute toxicity of vacuolin-1 in mice.

Data set [14] concerns HeLa cells. Briefly: Cathepsin L processing (western blot). It counts as cell-based. As to conditions: 1 μM. A general note: In western blotting, separated proteins are transferred to a membrane and probed.

On to `Ic1cccc(/C=N/Nc2nc(N3CCOCC3)nc(N(c3ccccc3)c3ccccc3)n2)c1` [vacuolin-1], for which the “autophagic vacuoles under the electron microscope” value in data set [1] (HeLa cells in normal culture conditions, 1 μM) is given as “large numbers of autophagic vacuoles were observed”. In addition, the “lysosome morphology in electron micrograph” value in data set [1] (HeLa cells, versus control) is listed as “enlarged lysosomes”. In addition, the “cell toxicity (MTT cell viability)” value in data set [2] was “much less cell toxicity than CQ”. Besides, the “colony formation efficiency of cancer cells, combination with chemotherapy drugs” value in data set [3] (FIG. 13B) is “greatly decreases”. Besides, the “anti-tumor effects of chemotherapy drugs in combination” value in [3] (human cancer cell lines, FIG. 13A) is recorded as “potently enhances”. For the same molecule, the “size and number of colonies generated from single cell” value in data set [4] is “dramatically reduced the size and number of colonies”. The “cell proliferation of hLCSCs” value in [5] is listed as “did not affect the cell proliferation”. The migration entry in data set [6] (FIG. 16D) is listed as “markedly inhibited”. Besides, the invasiveness entry in data set [6] (FIG. 16E) is reported as “markedly inhibited”. Also, the “LC3 puncta (yellow = autophagosomes, red only = autolysosomes)” value in data set [7] is reported as “potently induced LC3 yellow puncta, not red puncta”. In addition, the “fusion block between autophagosomes and lysosomes after removal of compound (reversibility)” value in data set [8] (3 hours after removal from the medium, HeLa cells, 1 μM) is “completely relieved”. In data set [8] (HeLa and PC3 cells, 6 hours, LC3 and p62 western blot), the “potency in suppressing autophagy relative to CQ” value is reported as “at least ten times more potent than CQ”. In data set [8] (HeLa cells, vacuolin-1 1 μM), the “lipidated LC3-II level” value is “markedly increased” and the p62 level result is reported as “accumulated”. In data set [9], the “cell toxicity, treatment alone” value is reported as “little cell toxicity” and the “synergistic effects on inhibiting tumor cell proliferation in combination with taxol, 5-FU, temsirolimus” value was “almost no synergistic effects”. Also, the “GPN induced lysosomal Ca2+ release” value in data set [10] is given as “significantly lowered”. Further, the “autophagy inhibition potency in hLCSCs relative to other tumor cell lines (times less potent)” value in data set [11] is reported as 10 times. In [12], the “migration of tumor cells (wound healing)” value was “efficiently suppressed the migration”. The “activity and weight gain compared to control” value in [13] (intraperitoneal 250 mg/kg, after two weeks) is “normal activity and weight gain”. Besides, the acute toxicity entry in data set [13] (intraperitoneal injection 250 mg/kg) is listed as “little acute toxicity”. In [14], the “levels of immature form of cathepsin L” value is recorded as “markedly increase” and the “processing of cathepsin L into its mature form” value is given as “not affected”.

For the origin of these results see patent US9717737B2, “Vacuolin-1 as an inhibitor of autophagy and endosomal trafficking and the use thereof for inhibiting tumor progression” (The University of Hong Kong, priority 2014, dated 2017).
